In brackets after ≈: the same amount, converted by molar mass.
What was measured:
Type in all cases: functional
[1] = tested on: Staphylococcus aureus; assay: Antibacterial activity against Staphylococcus aureus clinical isolate 22 assessed as growth inhibition at pH 5 after 16 to 18 hr by NCCLS agar dilution method
[2] = tested on: Staphylococcus aureus; assay: Antibacterial activity against Staphylococcus aureus clinical isolate 17 assessed as growth inhibition at pH 7 after 16 to 18 hr by NCCLS agar dilution method
[3] = tested on: Staphylococcus aureus; assay: Antibacterial activity against Staphylococcus aureus clinical isolate 1 assessed as growth inhibition at pH 5 after 16 to 18 hr by NCCLS agar dilution method
[4] = tested on: Helicobacter pylori; assay: Antibacterial activity against Helicobacter pylori 06-1 assessed as growth inhibition after 16 to 18 hr NCCLS agar dilution method
[5] = tested on: Staphylococcus aureus; assay: Antibacterial activity against Staphylococcus aureus clinical isolate 2 assessed as growth inhibition after 16 to 18 hr by NCCLS agar dilution method
[6] = tested on: Staphylococcus aureus; assay: Antibacterial activity against Staphylococcus aureus clinical isolate 13 assessed as growth inhibition at pH 9 after 16 to 18 hr by NCCLS agar dilution method
[7] = tested on: Helicobacter pylori; assay: Antibacterial activity against Helicobacter pylori assessed as growth inhibition after 16 to 18 hr NCCLS agar dilution method
[8] = tested on: Staphylococcus aureus; assay: Antibacterial activity against Staphylococcus aureus clinical isolate 14 assessed as growth inhibition at pH 7 after 16 to 18 hr by NCCLS agar dilution method
[9] = tested on: Staphylococcus aureus; assay: Antibacterial activity against Staphylococcus aureus clinical isolate 5 assessed as growth inhibition at pH 9 after 16 to 18 hr by NCCLS agar dilution method
[10] = tested on: Staphylococcus aureus; assay: Antibacterial activity against Staphylococcus aureus clinical isolate 6 assessed as growth inhibition at pH 5 after 16 to 18 hr by NCCLS agar dilution method
[11] = tested on: Staphylococcus aureus; assay: Antibacterial activity against Staphylococcus aureus clinical isolate 11 assessed as growth inhibition at pH 5 after 16 to 18 hr by NCCLS agar dilution method
[12] = tested on: Staphylococcus aureus; assay: Antibacterial activity against Staphylococcus aureus clinical isolate 17 assessed as growth inhibition at pH 5 after 16 to 18 hr by NCCLS agar dilution method
[13] = tested on: Staphylococcus aureus; assay: Antibacterial activity against Staphylococcus aureus clinical isolate 13 assessed as growth inhibition at pH 7 after 16 to 18 hr by NCCLS agar dilution method
[14] = tested on: Helicobacter pylori; assay: Antibacterial activity against Helicobacter pylori 05-1 assessed as growth inhibition after 16 to 18 hr NCCLS agar dilution method
[15] = tested on: Staphylococcus aureus; assay: Antibacterial activity against Staphylococcus aureus clinical isolate 5 assessed as growth inhibition at pH 5 after 16 to 18 hr by NCCLS agar dilution method
[16] = tested on: Staphylococcus aureus; assay: Antibacterial activity against Staphylococcus aureus clinical isolate 6 assessed as growth inhibition at pH 7 after 16 to 18 hr by NCCLS agar dilution method
[17] = tested on: Staphylococcus aureus; assay: Antibacterial activity against Staphylococcus aureus clinical isolate 8 assessed as growth inhibition at pH 9 after 16 to 18 hr by NCCLS agar dilution method
[18] = tested on: Staphylococcus aureus; assay: Antibacterial activity against Staphylococcus aureus clinical isolate 4 assessed as growth inhibition at pH 7 after 16 to 18 hr by NCCLS agar dilution method
[19] = tested on: Staphylococcus aureus; assay: Antibacterial activity against Staphylococcus aureus clinical isolate 4 assessed as growth inhibition at pH 9 after 16 to 18 hr by NCCLS agar dilution method
[20] = tested on: Staphylococcus aureus; assay: Antibacterial activity against Staphylococcus aureus clinical isolate 9 assessed as growth inhibition at pH 9 after 16 to 18 hr by NCCLS agar dilution method
[21] = tested on: Staphylococcus aureus; assay: Antibacterial activity against Staphylococcus aureus clinical isolate 3 assessed as growth inhibition at pH 9 after 16 to 18 hr by NCCLS agar dilution method
[22] = tested on: Staphylococcus aureus; assay: Bactericidal activity against Staphylococcus aureus clinical isolate 4 after 24 hr; settings: isolate 4, 24 h
[23] = tested on: Staphylococcus aureus; assay: Antibacterial activity against Staphylococcus aureus clinical isolate 4 assessed as growth inhibition at pH 5 after 16 to 18 hr by NCCLS agar dilution method
[24] = tested on: Staphylococcus aureus; assay: Antibacterial activity against Staphylococcus aureus clinical isolate 20 assessed as growth inhibition at pH 9 after 16 to 18 hr by NCCLS agar dilution method
[25] = tested on: Staphylococcus aureus; assay: Antibacterial activity against Staphylococcus aureus clinical isolate 19 assessed as growth inhibition at pH 5 after 16 to 18 hr by NCCLS agar dilution method
[26] = tested on: Pseudomonas aeruginosa; assay: Antibacterial activity against Pseudomonas aeruginosa ATCC 27853 assessed as growth inhibition after 16 to 18 hr NCCLS agar dilution method
[27] = tested on: Staphylococcus aureus; assay: Antibacterial activity against Staphylococcus aureus clinical isolate 23 assessed as growth inhibition at pH 7 after 16 to 18 hr by NCCLS agar dilution method
[28] = tested on: Staphylococcus aureus; assay: Antibacterial activity against Staphylococcus aureus clinical isolate 10 assessed as growth inhibition after 16 to 18 hr by NCCLS agar dilution method
[29] = tested on: Staphylococcus aureus; assay: Antibacterial activity against Staphylococcus aureus clinical isolate 12 assessed as growth inhibition at pH 5 after 16 to 18 hr by NCCLS agar dilution method
[30] = tested on: Staphylococcus aureus; assay: Antibacterial activity against Staphylococcus aureus clinical isolate 7 assessed as growth inhibition at pH 5 after 16 to 18 hr by NCCLS agar dilution method
[31] = tested on: Staphylococcus aureus; assay: Antibacterial activity against Staphylococcus aureus clinical isolate 6 assessed as growth inhibition after 16 to 18 hr by NCCLS agar dilution method
[32] = tested on: Helicobacter pylori; assay: Antibacterial activity against Helicobacter pylori 06-2 assessed as growth inhibition after 16 to 18 hr NCCLS agar dilution method
[33] = tested on: Helicobacter pylori; assay: Antibacterial activity against Helicobacter pylori 06-7 assessed as growth inhibition after 16 to 18 hr NCCLS agar dilution method
[34] = tested on: Staphylococcus aureus; assay: Antibacterial activity against Staphylococcus aureus clinical isolate 1 assessed as growth inhibition after 16 to 18 hr by NCCLS agar dilution method
[35] = tested on: Staphylococcus aureus; assay: Bactericidal activity against Staphylococcus aureus clinical isolate 10 after 24 hr; settings: isolate 10, 24 h
[36] = tested on: Staphylococcus aureus; assay: Antibacterial activity against Staphylococcus aureus clinical isolate 8 assessed as growth inhibition at pH 7 after 16 to 18 hr by NCCLS agar dilution method
[37] = tested on: Staphylococcus aureus; assay: Antibacterial activity against Staphylococcus aureus clinical isolate 7 assessed as growth inhibition after 16 to 18 hr by NCCLS agar dilution method
[38] = tested on: Staphylococcus aureus; assay: Bactericidal activity against methicillin-resistant Staphylococcus aureus isolate 5 after 24 hr; settings: isolate 5, 24 h
[39] = tested on: Staphylococcus aureus; assay: Bactericidal activity against Staphylococcus aureus clinical isolate 3 after 24 hr; settings: isolate 3, 24 h
[40] = tested on: Staphylococcus aureus; assay: Antibacterial activity against Staphylococcus aureus clinical isolate 19 assessed as growth inhibition at pH 7 after 16 to 18 hr by NCCLS agar dilution method
[41] = tested on: Helicobacter pylori; assay: Antibacterial activity against Helicobacter pylori 05-12 assessed as growth inhibition after 16 to 18 hr NCCLS agar dilution method
[42] = tested on: Staphylococcus aureus; assay: Antibacterial activity against Staphylococcus aureus clinical isolate 12 assessed as growth inhibition at pH 9 after 16 to 18 hr by NCCLS agar dilution method
[43] = tested on: Helicobacter pylori; assay: Antibacterial activity against Helicobacter pylori 06-5 assessed as growth inhibition after 16 to 18 hr NCCLS agar dilution method

**Q.** Which results are given for CO/N=C/CC(=O)c1ccc(OC)cc1?
**A.** MIC [1]: 16 µg/mL (≈ 77.2 µM); MIC [2]: 16 µg/mL (≈ 77.2 µM); MIC [3]: 64 µg/mL (≈ 309 µM); MIC [4]: 16 µg/mL (≈ 77.2 µM); MIC [5]: 16 µg/mL (≈ 77.2 µM); MIC [6]: 8 µg/mL (≈ 38.6 µM); MIC50 [7]: 32 µg/mL (≈ 154 µM); MIC90 [7]: 32 µg/mL (≈ 154 µM); MIC [8]: 16 µg/mL (≈ 77.2 µM); MIC [9]: 8 µg/mL (≈ 38.6 µM); MIC [10]: 64 µg/mL (≈ 309 µM); MIC [11]: 32 µg/mL (≈ 154 µM); MIC [12]: 16 µg/mL (≈ 77.2 µM); MIC [13]: 8 µg/mL (≈ 38.6 µM); MIC [14]: 32 µg/mL (≈ 154 µM); MIC [15]: 16 µg/mL (≈ 77.2 µM); MIC [16]: 32 µg/mL (≈ 154 µM); MIC [17]: 8 µg/mL (≈ 38.6 µM); MIC [18]: 16 µg/mL (≈ 77.2 µM); MIC [19]: 8 µg/mL (≈ 38.6 µM); MIC [20]: 8 µg/mL (≈ 38.6 µM); MIC [21]: 8 µg/mL (≈ 38.6 µM); MBC [22]: 128 µg/mL (≈ 618 µM); MIC [23]: 64 µg/mL (≈ 309 µM); MIC [24]: 8 µg/mL (≈ 38.6 µM); MIC [25]: 16 µg/mL (≈ 77.2 µM); MIC [26]: > 64 µg/mL; MIC [27]: 16 µg/mL (≈ 77.2 µM); MIC [28]: 16 µg/mL (≈ 77.2 µM); MIC [29]: 16 µg/mL (≈ 77.2 µM); MIC [30]: 16 µg/mL (≈ 77.2 µM); MIC [31]: 8 µg/mL (≈ 38.6 µM); MIC [32]: 32 µg/mL (≈ 154 µM); MIC [33]: 32 µg/mL (≈ 154 µM); MIC [34]: 16 µg/mL (≈ 77.2 µM); MBC [35]: > 128 µg/mL; MIC [36]: 16 µg/mL (≈ 77.2 µM); MIC [37]: 8 µg/mL (≈ 38.6 µM); MBC [38]: 256 µg/mL (≈ 1240 µM); MBC [39]: 64 µg/mL (≈ 309 µM); MIC [40]: 16 µg/mL (≈ 77.2 µM); MIC [41]: > 128 µg/mL; MIC [42]: 8 µg/mL (≈ 38.6 µM); MIC [43]: 32 µg/mL (≈ 154 µM)

From ChEMBL document CHEMBL3045868, “Synthesis and antibacterial activities of para-alkoxy phenyl--ketoaldehyde derivatives” (Med Chem Res, 2013)
